Test results as given in US6660276B1, “Peptides recognized by melanoma-specific cytotoxic lymphocytes, and uses therefor” (The University of Virginia Patent Foundation, priority 1994, dated 2003).
Where no end group is shown, it is not given here.

Tests used:
Assay type in all cases: cell-based, human
[1] = system: melanoma specific CTL DM204-13; assay: Reconstitution of melanoma-specific CTL epitope on peptide-pulsed 51Cr-labelled T2 cells, chromium release assay, DM204-13 CTL; details: for effect on epitope reconstitution: concentrations up to 10 nM
Method: (§1) Cell-mediated killing was determined in vitro using a 4-h chromium release assay. 51Cr-labeled target cells were plated at 2×10^3 cells/well in triplicate on 96-well V-bottom plates (Costar, Cambridge, Mass.) with varying numbers of effector cells in a final volume of 250 microl. Wells containing either culture medium and target cells only or 1 M HCl and target cells served as background 51Cr release controls and total release controls, respectively. The plates were centrifuged at 100×g for 3 min and incubated at 37° C. in 5% CO2 for 4 h. The plates were again centrifuged, and 0.20 ml of medium from each well was removed for counting in a gamma counter. The cytotoxic index was calculated as: [formula] […] Effector cells were added in 100 microl assay medium to give an E:T ratio of 10:1, and were incubated at 37° C. The remainder of the assay is performed as in standard chromium release assays described above. Wells containing peptide and target cells but no CTL were used as controls to rule out toxicity of the peptides themselves. […] HLA-A2.1 molecules were immunoaffinity purified from detergent lysates of the human melanoma cell line DM6. The associated peptides were released by acid extraction, separated from HLA-A2.1 and antibody by filtration, and fractionated by multiple stages of HPLC. […] L. Slingluff Jr., et al, J. Immunol. (1993) […], 2955, by using a gradient of acetonitrile/0.085% trifluoroacetic acid (TFA) in 0.1% TFA with acetonitrile increasing from 0 to 9% (0-5 min), 9 to 36%(5-55min), 36 to 60% (55-62min) (v/v), collecting one-minute fractions. In FIG. 8B Fractions 2 and 3 from the separation shown in panel A were pooled and rechromatographed with a 55 minute gradient of 0 to 30% acetonitrile/0.1% heptafluorobutyric acid (HFBA) in 0.1% HFBA, collecting one-minute fractions. For both panels, peptide fractions were incubated for 2-3 h with 2×10^3 51Cr-labelled T2 cells in 150 ll assay media per well in 96-well plates. […]

[2] = system: HLA-A2.1 restricted melanoma specific CTL lines (VMM5, VMM6, DM169-13, DM204-13, LD1); assay: Chromium release assay, peptide-preincubated T2 cells, panel of HLA-A2.1 restricted melanoma specific CTL lines from different patients; details: for activity in reconstituting recognition by CTL lines from 3 additional patients: at equal or higher concentrations than 946 (0.1-1 nM)
Method: Cell-mediated killing was determined in vitro using a 4-h chromium release assay. 51Cr-labeled target cells were plated at 2×10^3 cells/well in triplicate on 96-well V-bottom plates (Costar, Cambridge, Mass.) with varying numbers of effector cells in a final volume of 250 microl. Wells containing either culture medium and target cells only or 1 M HCl and target cells served as background 51Cr release controls and total release controls, respectively. The plates were centrifuged at 100×g for 3 min and incubated at 37° C. in 5% CO2 for 4 h. The plates were again centrifuged, and 0.20 ml of medium from each well was removed for counting in a gamma counter. The cytotoxic index was calculated as: [formula] […] Effector cells were added in 100 microl assay medium to give an E:T ratio of 10:1, and were incubated at 37° C. The remainder of the assay is performed as in standard chromium release assays described above. Wells containing peptide and target cells but no CTL were used as controls to rule out toxicity of the peptides themselves. […] To determine whether peptide 946 was a generally relevant epitope for HLA-A2.1 restricted melanoma specific CTL, lines from 3 additional patients were tested. CTL lines VMM5 and VMM6 were generated by stimulation with autologous tumor. VMM5 CTL were maintained on allogeneic A2.1^+ melanoma DM6 after specificity was obtained, C. L. Slingluff Jr. et al., J. Immunol. 150, 2955 (1993). DM169-13 and DM204-13 CTL were generated by stimulation with allogeneic A2.1^+ melanoma DM13, N. J. Crowley et al., J. Immunol. 146, 1692 (1991), then maintained with DM6. LD1 CTL were stimulated on a rotating schedule of stimulating logeneic A2.1^+ melanomas DM6, DM13, and DM93. DM93 is an HLA-A2.1^+ melanoma used as a positive control. […] T2 cells were preincubated with the peptides whose (M+H)^+ values are indicated in the legend, FIG. 12. […] All other peptides were used at a concentration of 10 nM except 250 nM for DM169 and 0.1 nM for LD1. Asterisks (*) mark peptides not evaluated. The sequences of the peptides 864 (Seq. ID No. 88), 946 (Seq. ID No. 39), 1046 (Seq. ID No. 89) are described in the text. Peptide 1030 has the sequence […] (SEQ ID NO:90), (related to peptide from tyrosinase. molecule). […] An additional peptide Try […] (SEQ ID NO 96), which originates from tyrosinase and had been identified by Boon and colleagues as an HLA-A2.1 restricted melanoma specific T cell epitope, was also evaluated. None of 4 CTL lines recognized cells incubated with this peptide.

[3] = system: melanoma specific CTL VMM5; assay: Reconstitution of melanoma-specific CTL epitope on peptide-pulsed 51Cr-labelled T2 cells, chromium release assay, VMM5 CTL; details: for effect on epitope reconstitution: concentrations up to 10 nM
Method: as §1

[4] = T2 cells, synthetic peptide with equimolar Leu/Ile at X, read-out: half-maximal reconstitution of the epitope

Substance	effect on epitope reconstitution [1]	activity in reconstituting recognition by CTL lines from 3 additional patients [2]	effect on epitope reconstitution [3]	other results
Ala Xaa Tyr Asp Ala Thr Tyr Glu Thr [Peptide 1046]	no effect	neither 864 nor 1046 had any detectable activity	no effect	
Tyr Xaa Glu Pro Gly Pro Val Thr Ala [Peptide 946]				EC50 [1, 4]: 1 to 10 pM; EC50 ([2]; dose response curves for two of the 3 additional CTL lines, read-out: half-maximal lysis): 1 to 10 pM; patients / CTL lines whose T-cells recognized the HLA-A2.1-associated peptide ([2]; five melanoma-specific CTL lines from five patients): 5 out of 5 and all five lines recognize; reconstitution of recognition by CTL lines from 3 additional patients ([2]; peptide at 0.1-1 nM, T2 cells, FIG. 12): reconstituted recognition; EC50 [3, 4]: 1 to 10 pM
SMAPGNTSV [Peptide 864]	no effect	neither 864 nor 1046 had any detectable activity	no effect	
Try Met Asn Gly Thr Met Ser Gln Val (YMNGTMSQV) [SEQ ID NO 96, originates from tyrosinase, reference compound]				CTL lines that recognized cells incubated with the peptide ([2]; 4 CTL lines tested): None of 4
